Reference: patent US9073892B2, “Indazolyl triazol derivatives” (Merck Serono S.A., priority 2010, dated 2015)

Legend:
[1] = test system: T1, IRAK1/4 human; test: IRAK1/4 phosphorylation IC50 (enzymatic assay, table 2); assay type: biochemical; conditions: human IRAK1/4 phosphorylation
T1 construct: fused on or other part: His tag and TEV cleavage site at the N-terminus
How it was run: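 In 384-well plates, reactions in 50 mM Hepes pH7.0 buffer with MgCl2, DTT, EGTA and BSA combined ATP, compounds in DMSO at 20 µM to 1 nM, and either His-TEV-tagged human IRAK-1 or His-TEV-tagged human IRAK-4 plus STK1-biotin peptide. They ran for 2 or 3 hours alongside 2% DMSO controls. Each value is an IC50 for inhibition.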

[2] = test system: IL1β-induced IL8 release in THP1 cells; test: IRAK IL8 secretion functional assay; assay type: cell-based; conditions: Homo sapiens; THP-1 cells, IL1β 100 ng/ml overnight, IL8 by HTRF; read-out: IC50, Secretion THP-1/IL-β induced IL8 release
Description: IRAK IL8 Secretion Functional Assay:
THP1 cells are human monocytes derived from acute monocytic leukemia. IL1β receptor expressed on the surface membrane of THP1 cells induced IL8 release. IRAKs are kinase signaling downstream of TLRs and TNF, IL-18, IL-33 and IL-1 receptors.
In cells, IRAK4 is upstream of IRAK1.
The Human IL8 Kit, provided by CysBio International based in Bagnols/Cèze FR, allows for the quantitative determination of IL-8 in cell-culture supernatants.
Anti-cytokine IL8 antibodies are respectively labeled with europium Cryptate and XL665. Upon their binding to IL-8 molecules, the two antibodies come into close proximity, allowing FRET (Fluorescence Resonance Energy Transfer) to occur. This FRET increases proportionally to IL-8 concentrations and be converted in IL8 pg amounts.
THP-1 cells are seeded on Day 1 in 384 well plate with RPMI 1640 at a density of 30 000 cells/well. Compounds 4×/2% DMSO (range of concentrations from 20 μM to 1 nM) and IL1β 4× at 100 ng/ml final are added to cells overnight at 37° C., 5% CO2. Measurement of IL-8 secretion is done by mixing on Day2 10 μl of supernatant with 10 μl of a mix solution of europium Cryptate and XL665 (v:v) as described by supplier.
HTRF (homogeneous time resolved fluorescence) signal is measured after 3 hours incubation time at 30° C. with a BMG Pherastar reader or equivalent.

Compound	IC50 [1] [nM]	IC50 [2] [nM]
CN1CCN(C(=O)Cc2cccc(-n3cc(-c4n[nH]c5ccccc45)nn3)c2)CC1 [Example 79, 3-(1-{3-[2-(4-methylpiperazin-1-yl)-2-oxoethyl]phenyl}-1H-1,2,3-triazol-4-yl)-1H-indazole]	1000 to 5000	1000 to 5000
c1cc(CCN2CCOCC2)cc(-n2cc(-c3n[nH]c4ccccc34)nn2)c1 [Example 80, 3-{1-[3-(2-morpholin-4-ylethyl)phenyl]-1H-1,2,3-triazol-4-yl}-1H-indazole]	1000 to 5000	1000 to 5000
O=C(Cc1cccc(-n2cc(-c3n[nH]c4ccccc34)nn2)c1)N1CCCC1 [Example 82, 3-{1-[3-(2-oxo-2-pyrrolidin-1-ylethyl)phenyl]-1H-1,2,3-triazol-4-yl}-1H-indazole]	1000 to 5000	1000 to 5000
c1cc(CCN2CCCC2)cc(-n2cc(-c3n[nH]c4ccccc34)nn2)c1 [Example 83, 3-{1-[3-(2-pyrrolidin-1-ylethyl)phenyl]-1H-1,2,3-triazol-4-yl}-1H-indazole]	1000 to 5000	100 to 1000
c1cc(CCCN2CCOCC2)cc(-n2cc(-c3n[nH]c4ccccc34)nn2)c1 [Example 86, 3-{1-[3-(3-morpholin-4-ylpropyl)phenyl]-1H-1,2,3-triazol-4-yl}-1H-indazole]	1000 to 5000	1000 to 5000
c1cc(CCCN2CCCC2)cc(-n2cc(-c3n[nH]c4ccccc34)nn2)c1 [Example 88, 3-{1-[3-(3-pyrrolidin-1-ylpropyl)phenyl]-1H-1,2,3-triazol-4-yl}-1H-indazole]	1000 to 5000	100 to 1000
O=C(c1ccc(-n2cc(-c3n[nH]c4ccccc34)nn2)cc1)N1CCC[C@@H](O)C1 [Example 96, (3R)-1-{4-[4-(1H-indazol-3-yl)-1H-1,2,3-triazol-1-yl]benzoyl}piperidin-3-ol]	100 to 1000	100 to 1000
O=C(c1ccc(-n2cc(-c3n[nH]c4ccccc34)nn2)cc1)N1CCC[C@H](O)C1 [Example 97, (3S)-1-{4-[4-(1H-indazol-3-yl)-1H-1,2,3-triazol-1-yl]benzoyl}piperidin-3-ol]	100 to 1000	100 to 1000
O=C(c1ccc(-n2cc(-c3n[nH]c4ccccc34)nn2)cc1)N1CCC[C@H]1CO [Example 99]	100 to 1000	100 to 1000
O=C(c1ccc(-n2cc(-c3n[nH]c4ccccc34)nn2)cc1)N1CCCCC1CO (stereo not drawn) [Example 100, (1-{4-[4-(1H-indazol-3-yl)-1H-1,2,3-triazol-1-yl]benzoyl}piperidin-2-yl)methanol]	100 to 1000	100 to 1000
O=C(c1ccc(-n2cc(-c3n[nH]c4ccccc34)nn2)cc1C(F)(F)F)N1CCOCC1 [Example 101, 3-{1-[4-(morpholin-4-ylcarbonyl)-3-(trifluoromethyl)phenyl]-1H-1,2,3-triazol-4-yl}-1H-indazole]	100 to 1000	1000 to 5000
CC(=O)N1CCC(c2ccc3[nH]nc(-c4cn(-c5ccc(C(=O)N6CCOCC6)cc5)nn4)c3c2)CC1 [Example 105, 5-(1-acetylpiperidin-4-yl)-3-{1-[4-(morpholin-4-ylcarbonyl)phenyl]-1H-1,2,3-triazol-4-yl}-1H-indazole]	100 to 1000	1000 to 5000
O=C(c1ccc(-n2cc(-c3n[nH]c4ccc(C5=CCN(Cc6ccccc6)CC5)cc34)nn2)cc1)N1CCOCC1 [Example 106, 5-(1-benzyl-1,2,3,6-tetrahydropyridin-4-yl)-3-{1-[4-(morpholin-4-ylcarbonyl)phenyl]-1H-1,2,3-triazol-4-yl}-1H-indazole]	100 to 1000	1000 to 5000

Second part, the compound after the results:

IC50 [1] [nM]	IC50 [2] [nM]	Compound
100 to 1000	< 100	CN(C)C1CCN(C(=O)c2ccc(-n3cc(-c4n[nH]c5ccccc45)nn3)cc2)CC1 [Example 72, 1-{4-[4-(1H-indazol-3-yl)-1H-1,2,3-triazol-1-yl]benzoyl}-N,N-dimethylpiperidin-4-amine]
100 to 1000	< 100	O=C(c1ccc(-n2cc(-c3n[nH]c4ccccc34)nn2)cc1)N1CCCC(C(=O)N2CCCC2)C1 (stereo not drawn) [Example 73, 3-[1-(4-{[3-(pyrrolidin-1-ylcarbonyl)piperidin-1-yl]carbonyl}phenyl)-1H-1,2,3-triazol-4-yl]-1H-indazole]
100 to 1000	100 to 1000	O=C(c1ccc(-n2cc(-c3n[nH]c4ccccc34)nn2)cc1)N1CCCC(CN2CCOCC2)C1 (stereo not drawn) [Example 74]
100 to 1000	100 to 1000	O=C1CCCN1CC1CCCN(C(=O)c2ccc(-n3cc(-c4n[nH]c5ccccc45)nn3)cc2)C1 (stereo not drawn) [Example 75, 1-[(1-{4-[4-(1H-indazol-3-yl)-1H-1,2,3-triazol-1-yl]benzoyl}piperidin-3-yl)methyl]pyrrolidin-2]
< 100	< 100	CN1CCCC2(CCCN(C(=O)c3ccc(-n4cc(-c5n[nH]c6ccccc56)nn4)cc3)C2)C1 (stereo not drawn) [Example 76, 2-{4-[4-(1H-indazol-3-yl)-1H-1,2,3-triazol-1-yl]benzoyl}-8-methyl-2,8-diazaspiro[5.5]undecane]
100 to 1000	100 to 1000	CN1CCCC(CNC(=O)c2ccc(-n3cc(-c4n[nH]c5ccccc45)nn3)cc2)C1 (stereo not drawn) [Example 77, 4-[4-(1H-indazol-3-yl)-1H-1,2,3-triazol-1-yl]-N-[(1-methylpiperidin-3-yl)methyl]benzamide]
100 to 1000	100 to 1000	O=C(c1ccc(-n2cc(-c3n[nH]c4ccccc34)nn2)cc1F)N1CCOCC1 [Example 81, 3-{1-[3-fluoro-4-(morpholin-4-ylcarbonyl)phenyl]-1H-1,2,3-triazol-4-yl}-1H-indazole]
< 100	1000 to 5000	O=C(c1ccc(-n2cc(-c3n[nH]c4ccc(C5CCNCC5)cc34)nn2)cc1)N1CCOCC1 [Example 84, 3-{1-[4-(morpholin-4-ylcarbonyl)phenyl]-1H-1,2,3-triazol-4-yl}-5-piperidin-4-yl-1H-indazole]
100 to 1000	1000 to 5000	O=C(c1ccc(-n2cc(-c3n[nH]c4ccccc34)nn2)cc1Cl)N1CCOCC1 [Example 89, 3-{1-[3-chloro-4-(morpholin-4-ylcarbonyl)phenyl]-1H-1,2,3-triazol-4-yl}-1H-indazole]
100 to 1000	100 to 1000	CN(C)CC1CCN(C(=O)c2ccc(-n3cc(-c4n[nH]c5ccccc45)nn3)cc2)CC1 [Example 91, 1-(1-{4-[4(1H-indazol-3-yl)-1H-1,2,3-triazol-1-yl]benzoyl}piperidin-4-yl)-N,N-dimethylmethanamine]
100 to 1000	100 to 1000	CN(C)CCC1CCCCN1C(=O)c1ccc(-n2cc(-c3n[nH]c4ccccc34)nn2)cc1 (stereo not drawn) [Example 92]
100 to 1000	1000 to 5000	O=C(c1ccc(-n2cc(-c3n[nH]c4ccc(CO)cc34)nn2)cc1)N1CCOCC1 [Example 93, (3-{1-[4(morpholin-4-ylcarbonyl)phenyl]-1H-1,2,3-triazol-4-yl}-1H-indazol-5-yl)methanol]
< 100	100 to 1000	O=C(c1ccc(-n2cc(-c3n[nH]c4ccc(Cn5nc(-c6cc(F)cc(F)c6)ccc5=O)cc34)nn2)cc1)N1CCOCC1 [Example 94, 6-(3,5-difluorophenyl)-2-[(3-{1-[4-(morpholin-4-ylcarbonyl)phenyl]-1H-1,2,3-triazol-4-yl}-1H-indazol-5-yl)methyl]pyridazin-3(2H)-one]
100 to 1000	1000 to 5000	O=C(c1ccc(-n2cc(-c3n[nH]c4ccc(Cn5ncccc5=O)cc34)nn2)cc1)N1CCOCC1 [Example 95, 2-[(3-{1-[4-(morpholin-4-ylcarbonyl)phenyl]-1H-1,2,3-triazol-4-yl}-1H-indazol-5-yl)methyl]pyridazin-3(2H)-one]
< 100	100 to 1000	CN1CCC(n2cc(NC(=O)c3ccc(-n4cc(-c5n[nH]c6ccccc56)nn4)cc3)cn2)CC1 [Example 98, 4-[4-(1H-indazol-3-yl)-1H-1,2,3-triazol-1-yl]-N-[1-(1-methylpiperidin-4-yl)-1H-pyrazol-4-yl]benzamide]
< 100	100 to 1000	O=C(c1ccc(-n2cc(-c3n[nH]c4ccc(Cn5nc(-c6ccncc6)ccc5=O)cc34)nn2)cc1)N1CCOCC1 [Example 103, 2-[(3-{1-[4-(morpholin-4-ylcarbonyl)phenyl]-1H-1,2,3-triazol-4-yl}-1H-indazol-5-yl)methyl]-6-pyridin-4-ylpyridazin-3(2H)-one]
< 100	100 to 1000	CN1CC=C(c2ccc3[nH]nc(-c4cn(-c5ccc(C(=O)N6CCOCC6)cc5)nn4)c3c2)CC1 [Example 104, 5-(1-methyl-1,2,3,6-tetrahydropyridin-4-yl)-3-{1-[4-(morpholin-4-ylcarbonyl)phenyl]-1H-1,2,3-triazol-4-yl}-1H-indazole]
